The values that follow come from patent US20080187984A1, “Myo-inositol oxygenases” (Cargill, Incorporated, priority 2001, published 2008).

The target in series [1] is T1, ycbD product (aldehyde dehydrogenase) (Bacillus subtilis, UniProt P42236).
T1 construct: made in house; host or cells: E. coli BLR(DE3), [ycbD+ycbE]-pET30a, desalted cell extract
The experiment in a line: Dehydrogenase activity of cell extracts, absorbance at 340 nm. The format is biochemical. As to conditions: 200 mM substrate, 0.05 mL cell extract (0.25 mg protein); for Relative Activity NAD: 1 mM NAD; for Relative Activity NADP: 1 mM NADP. As for the experimental part: The dehydrogenase activity of the cell extracts was followed using acetaldehyde, glucuronic acid, and glucurono-3,6-lactone as substrates in 96-well plates. Each assay mixture contained 100 mM potassium phosphate, pH 7.8, 1 mM NADP or NAD, 200 mM substrate, and between 0.02 and 0.1 mL cell extract (0.1 to 0.5 mg protein). The reactions were started by adding the enzyme and were incubated at 30° C. in the spectrophotometer. The dehydrogenase activity was followed by monitoring the linear change in absorbance at 340 nm over a 10 minute time period (referenced to a reaction mixture without substrate).

The test system of a further series is beta-glucuronidase. As to conditions: cited from earlier work.
For a further series, the system named is serum cholesterol. Particulars: mammals; cited from earlier work.
Another series has as its target T2, glucuronate reductase (Rattus norvegicus, UniProt P51635, T2A).
T2 construct: His tag (pET30a fusion); made in house; host or cells: E. coli BLR(DE3), pET30a
T2 sequence (P51635 1-325 T2A): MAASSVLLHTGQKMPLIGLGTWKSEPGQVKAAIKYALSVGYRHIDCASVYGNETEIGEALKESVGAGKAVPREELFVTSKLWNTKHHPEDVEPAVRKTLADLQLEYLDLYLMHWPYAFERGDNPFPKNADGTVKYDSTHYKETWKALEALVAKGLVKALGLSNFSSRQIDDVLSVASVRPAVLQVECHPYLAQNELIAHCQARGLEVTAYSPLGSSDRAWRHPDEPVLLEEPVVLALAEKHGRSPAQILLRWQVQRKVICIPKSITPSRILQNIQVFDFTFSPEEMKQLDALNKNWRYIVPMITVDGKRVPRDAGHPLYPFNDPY
The series can be described thus: GLR assay, loss of absorbance at 340 nm (loss of NADPH). The format is biochemical. The method, then: GLR was assayed by following the loss of absorbance at 340 nm (loss of NADPH) using 0.3 mM NADPH, 10 mM glucuronic acid, and variable amount of enzyme in 100 mM sodium phosphate, pH 6.6 (Hayashi et al., J. Biochem., 95:2223-2232 (1984)). 1-2 micromoles of NADPH were typically consumed per minute per mg protein.

Series [2] concerns the target T3, myo-inositol oxygenase (MIO) (Homo sapiens, UniProt Q9UGB7).
T3 construct: made in house; host or cells: Hi5 / Sf-9 insect cells (baculovirus, pFastBacHTa); also E. coli DH10B (pTRC99A) and S. cerevisiae INVSc1 (pYES2)
T3 sequence (Q9UGB7 with tags, fused parts or gaps): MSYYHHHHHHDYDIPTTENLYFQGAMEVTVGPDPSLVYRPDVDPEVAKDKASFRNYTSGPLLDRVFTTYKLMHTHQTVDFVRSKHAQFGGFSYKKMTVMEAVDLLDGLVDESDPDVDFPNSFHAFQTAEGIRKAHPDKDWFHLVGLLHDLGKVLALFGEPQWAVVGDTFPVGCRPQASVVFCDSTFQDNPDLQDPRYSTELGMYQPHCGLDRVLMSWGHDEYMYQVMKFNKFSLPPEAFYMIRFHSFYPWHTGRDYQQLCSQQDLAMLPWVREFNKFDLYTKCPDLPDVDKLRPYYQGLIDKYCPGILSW
The series can be described thus: MIO-orcinol assay of recombinant human MIO. The format is biochemical. The method, then:
MIO activity was determined using a modification of the method described by Reddy et al. (J. Biol. Chem., 256, 8510 (1981)). Briefly, this assay is based on the reaction of orcinol (5-methyl-1,3-benzenediol) with the MIO enzyme reaction product, D-glucuronic acid. The standard assay mixture contained 50 mM Tris-HCl (pH 8.0), 2.0 mM cysteine, 1.0 mM ferrous ammonium sulfate, 60 mM myo-inositol, and appropriate quantities of enzyme in a total volume of 0.50 mL. The stock L-cysteine solution (0.10 M) was prepared every two weeks, and the stock ferrous ammonium sulfate solution (0.50 M) was prepared fresh daily. The enzyme solutions consisted of cell extracts prepared as described or chromatography fractions generated during the partial purification of the enzyme. Prior to initiating the reaction by addition of the substrate myo-inositol (stock solution of 0.50 M, dissolved in 50 mM TEGG), all other reagents were mixed together by vortexing and incubated for 5 minutes at 30° C. The substrate was then added to initiate the assay. After vortex-mixing the components, the reaction was carried out in an air atmosphere at 30° C. with shaking at 200 rpm for 10 minutes. The reaction was terminated by the addition of 75 μL of 20% trichloroacetic acid. After vortexing, the assay mixture was transferred to a 1.5 mL polypropylene microcentrifuge tube, and the precipitated polypeptide was separated by centrifugation at 21,000×g for 3 minutes at 25° C. The supernatant was transferred to a new 1.5 mL polypropylene microcentrifuge tube, and the D-glucuronic acid concentration was determined by the orcinol colorimetric assay.
The orcinol colorimetric determination assay was performed as follows. Freshly prepared orcinol reagent (0.6 mL; 0.4% (w/v) orcinol, 0.09% (w/v) ferric trichloride hexahydrate in concentrated HCl) was added to 0.3 mL of the clear supernatant. The mixture was vortex-mixed and then incubated in a boiling water bath for 30 minutes. After cooling to 25° C., the mixture was cleared by centrifugation at 21,000×g for 3 minutes. The supernatant was transferred to a disposable cuvette, and the absorbance was measured at 660 nm. A standard curve was generated by replacing the enzyme fraction with D-glucuronic acid (0 to 40 μg/mL) and carrying out the assay as described above. […]
All reactions were run in duplicate, and all polypeptide fractions were assayed with and without added myo-inositol substrate (an equal volume of TEGG buffer with or without substrate was added to initiate the assay). The average of the absorbance readings of the assay mixtures carried out without substrate was subtracted from the average of readings of the assay mixtures containing substrate. […]

T1 sequence (P42236 whole entry): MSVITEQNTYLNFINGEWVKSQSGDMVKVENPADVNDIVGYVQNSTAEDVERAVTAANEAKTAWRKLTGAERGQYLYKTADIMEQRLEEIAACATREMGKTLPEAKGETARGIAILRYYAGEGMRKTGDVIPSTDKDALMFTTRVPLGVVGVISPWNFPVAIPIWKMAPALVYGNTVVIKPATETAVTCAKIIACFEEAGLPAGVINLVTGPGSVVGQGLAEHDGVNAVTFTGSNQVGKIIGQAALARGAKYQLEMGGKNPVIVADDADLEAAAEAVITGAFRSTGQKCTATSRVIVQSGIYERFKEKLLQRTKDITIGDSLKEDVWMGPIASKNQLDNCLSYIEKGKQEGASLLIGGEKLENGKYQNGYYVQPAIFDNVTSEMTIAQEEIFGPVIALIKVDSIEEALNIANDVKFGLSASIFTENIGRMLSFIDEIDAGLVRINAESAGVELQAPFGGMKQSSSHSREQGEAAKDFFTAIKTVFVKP

Take `O=C[C@H](O)[C@@H](O)[C@H](O)[C@H](O)C(=O)O` [D-glucuronate]: in series [1], the “Relative Activity NAD” value is given as 2.4 percentage of maximum activity and the “Relative Activity NADP” value was 2.1 percentage of maximum activity.

Regarding `O=C[C@H](O)[C@H]1OC(=O)[C@@H](O)[C@H]1O` [D-glucurono-3,6-lactone], in series [1], the “Relative Activity NAD” value is 2.1 percentage of maximum activity and the “Relative Activity NADP” value is on record as 50.6 percentage of maximum activity.

On to `O=C(O)[C@@H](O)[C@@H](O)[C@H](O)[C@@H](O)C(=O)O` [Glucaric acid], for which, in the series on beta-glucuronidase, the inhibition of beta-glucuronidase entry is on record as “potent inhibitor”. Moreover, in the series on serum cholesterol, the “effect on serum cholesterol” value is “lower serum cholesterol”.

Turning to `CC=O` [acetaldehyde], in series [1], the “Relative Activity NAD” value was 56.9 percentage of maximum activity and the “Relative Activity NADP” value is 100.0 percentage of maximum activity.

B1: GLR: glucuronate reductase, rat glr expressed from pET30a in E. coli, His-Bind purified (protein, UniProt P51635 2-325, looked up)
Aldo-keto reductase family 1 …: TASSVLLHTGQKMPLIGLGTWKSEPGQVKAAIKYALSVGYRHIDCASVYGNETEIGEALKESVGAGKAVPREELFVTSKLWNTKHHPEDVEPAVRKTLADLQLEYLDLYLMHWPYAFERGDNPFPKNADGTVKYDSTHYKETWKALEALVAKGLVKALGLSNFSSRQIDDVLSVASVRPAVLQVECHPYLAQNELIAHCQARGLEVTAYSPLGSSDRAWRHPDEPVLLEEPVVLALAEKHGRSPAQILLRWQVQRKVICIPKSITPSRILQNIQVFDFTFSPEEMKQLDALNKNWRYIVPMITVDGKRVPRDAGHPLYPFNDPY
modifications: His tag
Turning to B1, the NADPH consumed with glucuronate reductase (0.3 mM NADPH, 10 mM glucuronic acid, pH 6.6) was 1-2 micromoles per minute per mg p. For the same molecule, the “Specific Activity (purified protein)” value with glucuronate reductase (His-Bind purified from E. coli) was in the range of 1 to 3 µmol/min/mg.

B2: purified polypeptide: His-tagged human MIO polypeptide, SEQ ID NO:12, expressed by baculovirus in insect cells (protein)
chain: MSYYHHHHHHDYDIPTTENLYFQGAMEVTVGPDPSLVYRPDVDPEVAKDKASFRNYTSGPLLDRVFTTYKLMHTHQTVDFVRSKHAQFGGFSYKKMTVMEAVDLLDGLVDESDPDVDFPNSFHAFQTAEGIRKAHPDKDWFHLVGLLHDLGKVLALFGEPQWAVVGDTFPVGCRPQASVVFCDSTFQDNPDLQDPRYSTELGMYQPHCGLDRVLMSWGHDEYMYQVMKFNKFSLPPEAFYMIRFHSFYPWHTGRDYQQLCSQQDLAMLPWVREFNKFDLYTKCPDLPDVDKLRPYYQGLIDKYCPGILSW
modifications: His tag; human polypeptide with non-human sequences
Consider B2, for which the MIO activity entry in series [2] (Hi5 insect cells, baculovirus expression, FIG. 8) is listed as “exhibited MIO activity”. In series [2] (Nickel-NTA purified to homogeneity, from insect cells), the specific activity is reported as 225 μg glucuronic acid formed per mg polypeptide during a 10 minute assay.

B3: human MIO polypeptide: Human myo-inositol oxygenase (ORF EMBL: CAB63064.1) expressed in E. coli or S. cerevisiae, assayed in cell extracts (protein, UniProt Q9UGB7 1-285, looked up)
Inositol oxygenase: MKVTVGPDPSLVYRPDVDPEVAKDKASFRNYTSGPLLDRVFTTYKLMHTHQTVDFVRSKHAQFGGFSYKKMTVMEAVDLLDGLVDESDPDVDFPNSFHAFQTAEGIRKAHPDKDWFHLVGLLHDLGKVLALFGEPQWAVVGDTFPVGCRPQASVVFCDSTFQDNPDLQDPRYSTELGMYQPHCGLDRVLMSWGHDEYMYQVMKFNKFSLPPEAFYMIRFHSFYPWHTGRDYQQLCSQQDLAMLPWVREFNKFDLYTKCPDLPDVDKLRPYYQGLIDKYCPGILSW
Consider B3, for which the specific activity in series [2] (E. coli, pTRC99A, IPTG induced, desalted cell extract) is reported as 8.8 μg glucuronic acid formed per mg polypeptide in 10 minutes; in series [2] (S. cerevisiae INVSc1, pYES2, cell extract, 12 hours after induction), 13.4 μg glucuronic acid formed per mg polypeptide in 10 minutes.
